Data: US20120015907A1, “Furopyridine compounds and uses thereof” (NOVARTIS AG, priority 2010, published 2012)

Key:
[1] = tested on: HCV replicon I389luc-ubi-neo/NS3-3'/ET in ET (Huh-lucubineo-ET) cells; experiment: Replicon assay (Biological Example 2), luciferase read-out; assay type: cell-based; details: Hepatitis C virus, luciferase activity 48 hours after compound addition
Procedure, shortened: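 ET cells stably carry the replicon with adaptive mutations E1202G, […] and K1846T. Compound is added 24 h after plating at 0.1 nM–50 μM final (10-point, 3-fold dilutions) with 0.5% DMSO, and luciferase is read 48 h later. EC50 comes from a Hill-equation fit of % inhibition versus no-compound control.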

[2] = target: T1, HCV polymerase (Hepatitis C virus genotype 1b, UniProt Q9WMX2); experiment: biochemical; details: polymerase assay of Biological Example 1; read-out: NS5B polymerase IC50
T1 construct: (His)6 (C)

CNC(=O)c1c(-c2ccc(F)cc2)oc2nc(N(CCCCS(C)(=O)=O)S(C)(=O)=O)c(C3CC3)cc12 [Example 25.7, 5-cyclopropyl-2-(4-fluorophenyl)-N-methyl-6-(N-(4-(methylsulfonyl)butyl)methylsulfonamido)furo[2,3-b]pyridine-3-carboxamide]
IC50 [1]: ≤ 100 nM
IC50 [2]: 1 nM

CNC(=O)c1c(-c2ccc(C)cc2)oc2nc(N(CCCCS(C)(=O)=O)S(C)(=O)=O)c(C3CC3)cc12 [Example 25.6, 5-cyclopropyl-N-methyl-6-(N-(4-(methylsulfonyl)butyl)methylsulfonamido)-2-p-tolylfuro[2,3-b]pyridine-3-carboxamide]
IC50 [1]: ≤ 100 nM
IC50 [2]: 2 nM

CNC(=O)c1c(-c2ccc(Cl)cc2)oc2nc(N(CCCCS(C)(=O)=O)S(C)(=O)=O)c(I)cc12 [Example 18.995, 2-(4-chlorophenyl)-5-iodo-N-methyl-6-(N-(4-(methylsulfonyl)butyl)methylsulfonamido)furo[2,3-b]pyridine-3-carboxamide]
IC50 [1]: ≤ 100 nM
IC50 [2]: 14 nM

CNC(=O)c1c(-c2ccc(F)cc2)oc2nc(N(CCCC(=O)NS(C)(=O)=O)S(C)(=O)=O)c(I)cc12 [Example 18.96, 2-(4-fluorophenyl)-5-iodo-N-methyl-6-(N-(4-(methylsulfonamido)-4-oxobutyl)methylsulfonamido)furo[2,3-b]pyridine-3-carboxamide]
IC50 [1]: ≥ 5000 nM
IC50 [2]: 34 nM

CNC(=O)c1c(-c2ccc(F)cc2)oc2nc(N(C)S(C)(=O)=O)c(CCCCC(=O)N3CCC[C@H]3C(=O)O)cc12 [Example 4.7, (S)-1-(5-(2-(4-fluorophenyl)-3-(methylcarbamoyl)-6-(N-methylmethylsulfonamido)furo[2,3-b]pyridin-5-yl)pentanoyl)pyrrolidine-2-carboxylic acid]
IC50 [1]: ≥ 5000 nM
IC50 [2]: 51 nM

CNC(=O)c1c(-c2ccc(C)cc2)oc2nc(N(CCC[C@@H]3CCCS3(=O)=O)S(C)(=O)=O)c(C3CC3)cc12 [Example 24.7, 5-Cyclopropyl-6-{[3-((R)-1,1-dioxo-tetrahydrothiophen-2-yl)-propyl]-methanesulfonyl-amino}-2-p-tolyl-furo[2,3-b]pyridine-3-carboxylic acid methylamide]
IC50 [1]: ≤ 100 nM
IC50 [2]: 5 nM

CNC(=O)c1c(-c2ccc(Oc3ccccc3)cc2)oc2nc(N(C)S(C)(=O)=O)c(C3CC3)cc12 [Example 16, 5-cyclopropyl-N-methyl-6-(N-methylmethylsulfonamido)-2-(4-phenoxyphenyl)furo[2,3-b]pyridine-3-carboxamide]
IC50 [1]: ≤ 100 nM
IC50 [2]: 3 nM

CNC(=O)c1c(-c2ccc(F)cc2)oc2nc(N(CCCC(C)(C)C(=O)OCC(C)C)S(C)(=O)=O)c(C3CC3)cc12 [Example 26, isobutyl 5-(N-(5-cyclopropyl-2-(4-fluorophenyl)-3-(methylcarbamoyl)furo[2,3-b]pyridin-6-yl)methylsulfonamido)-2,2-dimethylpentanoate]
IC50 [1]: ≤ 100 nM
IC50 [2]: 6 nM

CCc1cc2c(C(=O)NC)c(-c3ccc(F)cc3)oc2nc1N(CCCS(=O)(=O)c1ccccc1)S(C)(=O)=O [Example 21.97, 5-ethyl-2-(4-fluorophenyl)-N-methyl-6-(N-(3-(phenylsulfonyl)propyl)methylsulfonamido)furo[2,3-b]pyridine-3-carboxamide]
IC50 [1]: ≤ 100 nM
IC50 [2]: 3 nM

CCc1cc2c(C(=O)NC)c(-c3ccc(F)cc3)oc2nc1N(CCCS(C)(=O)=O)S(C)(=O)=O [Example 21.992, 5-ethyl-2-(4-fluorophenyl)-N-methyl-6-(N-(3-(methylsulfonyl)propyl)methylsulfonamido)furo[2,3-b]pyridine-3-carboxamide]
IC50 [1]: ≤ 100 nM
IC50 [2]: 65 nM

CCc1cc2c(C(=O)NC)c(-c3ccc(F)cc3)oc2nc1N(Cc1cccc(C#N)c1)S(C)(=O)=O [Example 21.99, 6-(N-(3-cyanobenzyl)methylsulfonamido)-5-ethyl-2-(4-fluorophenyl)-N-methylfuro[2,3-b]pyridine-3-carboxamide]
IC50 [1]: ≥ 5000 nM
IC50 [2]: 4540 nM

CNC(=O)c1c(-c2ccc(Cl)cc2)oc2nc(N(CCCS(C)(=O)=O)S(C)(=O)=O)c(C3CC3)cc12 [Example 25.5, 2-(4-chlorophenyl)-5-cyclopropyl-N-methyl-6-(N-(3-(methylsulfonyl)propyl)methylsuIfonamido)furo[2,3-b]pyridine-3-carboxamide]
IC50 [1]: ≤ 100 nM
IC50 [2]: 1 nM

CNC(=O)c1c(-c2ccc(F)cc2)oc2nc(N(CCC(C)S(C)(=O)=O)S(C)(=O)=O)c(C3CC3)cc12 (stereo not drawn) [Example 26.6, 5-cyclopropyl-2-(4-fluorophenyl)-N-methyl-6-(N-(3-(methylsulfonyl)butyl)methylsulfonamido)furo[2,3-b]pyridine-3-carboxamide]
IC50 [1]: ≤ 100 nM
IC50 [2]: 4 nM

CNC(=O)c1c(-c2ccc(F)cc2)oc2nc(N(CCC(C)O)S(C)(=O)=O)c(C3CC3)cc12 (stereo not drawn) [Example 26.5, 5-cyclopropyl-2-(4-fluorophenyl)-6-(N-(3-hydroxybutyl)methylsulfonamido)-N-methylfuro[2,3-b]pyridine-3-carboxamide]
IC50 [1]: ≤ 100 nM
IC50 [2]: 10 nM

CNC(=O)c1c(-c2ccc(F)cc2)oc2nc(N(CCCCC(=O)OC)S(C)(=O)=O)c(C3CC3)cc12 [Example 26.8, methyl 5-(N-(5-cyclopropyl-2-(4-fluorophenyl)-3-(methylcarbamoyl)furo[2,3-b]pyridin-6-yl)methylsulfonamido) pentanoate]
IC50 [1]: ≤ 100 nM
IC50 [2]: 5 nM

CNC(=O)c1c(-c2ccc(C)cc2)oc2nc(N(CCCCCC(=O)O)S(C)(=O)=O)c(C3CC3)cc12 [Example 27.9, 6-(N-(5-cyclopropyl-3-(methylcarbamoyl)-2-p-tolylfuro[2,3-b]pyridin-6-yl)methylsulfonamido) hexanoic acid]
IC50 [1]: ≤ 100 nM
IC50 [2]: 2 nM

CNC(=O)c1c(-c2ccc(C)cc2)oc2nc(N(CCC(C)O)S(C)(=O)=O)c(C3CC3)cc12 (stereo not drawn) [Example 26.7, 5-cyclopropyl-6-(N-(3-hydroxybutyl)methylsulfonamido)-N-methyl-2-p-tolylfuro[2,3-b]pyridine-3-carboxamide]
IC50 [1]: ≤ 100 nM
IC50 [2]: 2 nM

CCOC(=O)CCCCN(c1nc2oc(-c3ccc(Cl)cc3)c(C(=O)NC)c2cc1C1CC1)S(C)(=O)=O [Example 26.3, ethyl 5-(N-(2-(4-chlorophenyl)-5-cyclopropyl-3-(methylcarbamoyl)furo[2,3-b]pyridin-6-yl)methylsulfonamido) pentanoate]
IC50 [1]: ≤ 100 nM
IC50 [2]: 3 nM

CNC(=O)c1c(-c2ccc(Cl)cc2)oc2nc(N(CCCCS(C)(=O)=O)S(C)(=O)=O)c(C3CC3)cc12 [Example 25.8]
IC50 [1]: ≤ 100 nM
IC50 [2]: 1 nM

C=Cc1cc2c(C(=O)NC)c(-c3ccc(F)cc3)oc2nc1N(CCCCC(=O)OC)S(C)(=O)=O [Example 24.3, methyl 5-(N-(2-(4-fluorophenyl)-3-(methylcarbamoyl)-5-vinylfuro[2,3-b]pyridin-6-yl)methylsulfonamido) pentanoate]
IC50 [1]: ≤ 100 nM
IC50 [2]: 57 nM

CNC(=O)c1c(-c2ccc(C3CC3)cc2)oc2nc(N(CCCC3CCCS3(=O)=O)S(C)(=O)=O)c(C3CC3)cc12 (stereo not drawn) [Example 25.4, 5-Cyclopropyl-2-(4-cyclopropyl-phenyl)-6-{[3-(1,1-dioxo-tetrahydro-thiophen-2-yl)-propyl]-methanesulfonyl-amino}-furo[2,3-b]pyridine-3-carboxylic acid methylamide]
IC50 [1]: ≤ 100 nM
IC50 [2]: 1 nM
